Data on one compound can be found in US20220249431A1, “ANTIMYCOTIC” (Karl-Franzens-Universität Graz, priority 2019, published 2022).

Broadly, the MIC50 is an inhibitory concentration at the 50% level, which refers to growth in some studies and to a panel of isolates in others. A low value points to higher susceptibility.

The structures appear in SMILES notation. Values after ≈ are worked out from the molar mass of the structure shown.

Assay [1] has as its system C. albicans. The experiment in a line: Minimal inhibitory concentration, planktonic cells (CLSI M27). It counts as cell-based. Conditions: Candida albicans, growth reduced to 50% of untreated control. How it is done:
(§1) The minimal inhibitory concentration (MIC) was determined following the standard Clinical and Laboratory Standards Institute (CLSI) protocol M27 (Rex JH, and Clinical and Laboratory Standards Institute (2008). Reference method for broth dilution antifungal susceptibility testing of yeasts: approved standard, 3rd ed. National Committee for Clinical Laboratory Standards, Wayne, Pa.) for yeast strains or the standard CLSI protocol […] (Clinical and Laboratory Standards Institute (2008). Reference method for broth dilution antifungal susceptibility testing of filamentous fungi. Clinical and Laboratory Standards Institute, Wayne, Pa.) for filamentous fungi. For yeast strains media was inoculated with an overnight culture to an OD600 of 0.001 (1^04 cells/mL). Serial dilutions of substances were added and cells were incubated at 37° C. without shaking for 48±1 h. MIC tests were performed in flat-bottom 96 well plates (Greiner Bio One, Austria) using 100 μL suspension per well sealed with gas-permeable foils. After incubation, OD490 values were measured using 96-well plate reader and growth capacity was analyzed by setting the corresponding control to 100%. Different flavones were randomly chosen and tested for their effects on planktonic cells and biofilms of C. albicans and C. glabrata to determine corresponding IC50 values (the concentration that is required to reduce growth (minimal inhibitory concentration=MIC) or biofilm formation (biofilm inhibitory concentration=BIC) to 50% compared to the untreated control).

For assay [2], the system named is C. albicans. The experiment in a line: Checkerboard / combination assay, growth of planktonic cells (OD490). It counts as cell-based, Candida albicans. The method, then: The minimal inhibitory concentration (MIC) was determined following the standard Clinical and Laboratory Standards Institute (CLSI) protocol M27 (Rex JH, and Clinical and Laboratory Standards Institute (2008). Reference method for broth dilution antifungal susceptibility testing of yeasts: approved standard, 3rd ed. National Committee for Clinical Laboratory Standards, Wayne, Pa.) for yeast strains or the standard CLSI protocol M38 (Clinical and Laboratory Standards Institute (2008). Reference method for broth dilution antifungal susceptibility testing of filamentous fungi. Clinical and Laboratory Standards Institute, Wayne, Pa.) for filamentous fungi.
For yeast strains media was inoculated with an overnight culture to an OD600 of 0.001 (1^04 cells/mL). Serial dilutions of substances were added and cells were incubated at 37° C. without shaking for 48±1 h.
MIC tests were performed in flat-bottom 96 well plates (Greiner Bio One, Austria) using 100 μL suspension per well sealed with gas-permeable foils. After incubation, OD490 values were measured using 96-well plate reader and growth capacity was analyzed by setting the corresponding control to 100%.
For synergy testing of different combinations, checkerboard assays were performed. Therefore, serial dilutions of two different compounds were combined for MIC, BIC or BEC testing as described above. Antifungal activity of substances alone or in combination was determined by setting the corresponding control to 100%.

Assay [3] relates to C. albicans SC5314. The experiment in a line: C. elegans infection model, worm survival. It counts as in vivo. The method, then:
The C. elegans Δglp-4 Δsek-1 strain (generously provided by Valerie Defraine, Centre of Microbial and Plant Genetics, KU Leuven, Belgium) was used for in vivo testing of antifungal activity. Worms were maintained on NGM plates (nematode growth medium; 2.5 g/L Bacto Peptone, 3 g/L NaCl, 17 g/L agar, supplemented with 5 mg/L cholesterol, 1 mM CaCl2), 1 mM MgSO4 and 25 mM KPO4 buffer pH 6.0), seeded with a thin layer of E. coli OP50, at 16° C. and worms were chunked onto fresh plates every three to four days.
Egg collecting was performed by bleaching according to Stiernagle T (“Maintenance of C. elegans”. WormBook. doi: 10.1895/wormbook.1.101 (2006)) and Porta-de-la-Riva M et al. JoVE 64(2012): e4019-e4019). In short, adult worms were collected from plates and treated with a bleaching solution (10 mL household bleach+5 mL 5M NaOH), thereby worms disintegrate and eggs are released. After vigorous shaking for 5 min, M9 medium (3 g/L KH2PO4, 6 g/L Na2HPO4, 5 g/L NaCl, supplemented with 1.25 mM MgSO4) was added and worms were immediately put on ice. After three washing steps, residual eggs were incubated in M9 medium over night at 16° C. on a tube roller. The next day, eggs were collected, transferred onto fresh NGM/OP50 plates and incubated at 25° C. for 3-4 days until nematodes have reached the L3/L4 stage prior to infection.
Synchronized (L3/L4 stage) worms were collected, washed three times with M9 media and spotted onto prepared YPD plates with a thin layer of C. albicans SC5314. […]
For efficacy testing of compounds, 750 μL of the worm suspension were transferred into each well of a 24-well plate and substances were added at indicated concentrations (1% DMSO). Nematodes were immediately counted (t0) and survival was monitored over five days post infection by counting living worms.
To verify the antifungal potential of DHF in vivo, the well-established C. elegans infection model (Breger J, et al. (2007) PLOS Pathog. 3(2): e18.) was used. […] Survival of infected as well as non-infected nematodes was monitored daily over the time period of 5 days (FIG. 2A). […]

In assay [4] the test system is C. glabrata. The experiment in a line: Minimal inhibitory concentration, planktonic cells (CLSI M27). It counts as cell-based, Candida glabrata. Conditions: Nakaseomyces glabratus, growth reduced to 50% of untreated control. The method, then:
as §1

As to `O=c1c(O)c(-c2ccccc2)oc2ccc(O)cc12` [3,6-dihydroxyflavone], the figures for the MIC50 in assay [1] and in assay [4] were 9.5 ± 0.1 µM (≈ 2.42 µg/mL) and 7.9 ± 1 µM (≈ 2.01 µg/mL), respectively. The “effect on activity of caspofungin, growth of planktonic cells” value in assay [2] (4.9 nM Caspo, 5 μM 3,6-DHF, preliminary data) is reported as “enhances the activity of Caspofungin”. In addition, the “effect on activity of azoles in vitro (growth inhibition)” value in assay [2] (3.1 μM 3,6-DHF with 0.4 μM miconazole or 0.5 μM fluconazole) is “enhances the activity of azoles”. The “effect on activity of azoles in vivo (worm survival)” value in assay [3] (25 μM 3,6-DHF with 0.125 μM miconazole or 0.5 μM fluconazole, 5 days) was “enhances the activity of azoles”. In assay [3] (25 μM 3,6-DHF with 0.5 μM AMB, 5 days), the “effect on antifungal activity of AMB in vivo (worm survival)” value is recorded as “enhances the antifungal activity of AMB”. Besides, the “worms still alive at day 5 post infection” value in assay [3] (50 μM DHF, single application immediately after infection, infected control 20.5%) turned out to be 45.7%.
